Assay results reported in the supplement of paper PMC8671470.

What was measured:
Conditions in all cases: 72 h
K-562 [1] = test system: K-562
How it was run: (§1)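 The IC50 was read from log-logistic dose–response fits. Fifteen myeloid leukaemia lines were exposed for 72 h at 37 °C with 5% CO2 to five tenfold doses from 1 to 10,000 nM in duplicate. ATP luminescence, normalised to vehicle and to a 10 µM positive control, was fitted with four parameters.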

KU-812 [2] = test system: KU-812
How it was run: as §1

MV4-11 [3] = test system: MV4-11
How it was run: as §1

Mono-Mac-6 [4] = test system: Mono-Mac-6
How it was run: as §1

NOMO-1 [5] = test system: NOMO-1
How it was run: as §1

HL-60 [6] = assay: cell viability (% survival relative to DMSO control); higher = less cytotoxic
How it was run: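 Four-parameter log-logistic fits in drc and PharmacoGx supplied area under the curve where it is given. Underlying viability came from CellTiter-Glo, normalised to DMSO and proteasome-inhibitor wells, with the proteasome inhibitor at 10 μM. HL-60 cells in RPMI 1640 plus 10% FBS had been rescreened against the full library at five tenfold concentrations of 1–10,000 nM, in duplicate on 384-well plates, with DMSO or 100 nM of one of three metabolic inhibitors, for 72 h at 37 °C, 5% CO2.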

BV-173 = assay: cell viability (% survival relative to DMSO control, bortezomib = 0%); higher = less cytotoxic
How it was run: (§2)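 Fifteen myeloid leukaemia cell lines (10 AML, 5 CML) were seeded at a density titrated to the linear growth range. They went into 384-well plates with compounds pre-printed at 1, 10, 100, 1000 or 10000 nM in duplicate. After 72 h at 37 °C with 5% CO2, viability was read by CellTiter-Glo luminescence. Values are percent survival, with vehicle set to 100% and a 10 µM positive control to 0%, averaged over the duplicates.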

HEL = assay: as above
How it was run: as §2

HL-60 [7] = assay: as above
How it was run: as §2

K-562 [8] = assay: as above
How it was run: as §2

KCL-22 = assay: as above
How it was run: as §2

KG-1 = assay: as above
How it was run: as §2

KU-812 [9] = assay: as above
How it was run: as §2

LAMA-84 = assay: as above
How it was run: as §2

ML-2 = assay: as above
How it was run: as §2

MOLM-13 = assay: as above
How it was run: as §2

MV4-11 [10] = assay: as above
How it was run: as §2

Mono-Mac-6 [11] = assay: as above
How it was run: as §2

NOMO-1 [12] = assay: as above
How it was run: as §2

SHI-1 = assay: as above
How it was run: as §2

THP-1 = assay: as above
How it was run: as §2

CC(C)(C#N)c1cc(Cn2cncn2)cc(C(C)(C)C#N)c1 [Anastrozole]
Conditions	IC50 (cell viability) [µM]
K-562 [1]	> 10
KU-812 [2]	> 10
MV4-11 [3]	> 10
Mono-Mac-6 [4]	> 10
NOMO-1 [5]	> 10

cell viability [%], HL-60 [6]
Conditions	0.001 µM	0.01 µM	0.1 µM	1 µM	10 µM
co-treatment: AZD3965 100 nM	97.5	101.3	102	102	100
co-treatment: DMSO vehicle	101	100	101	101.7	102
co-treatment: GSK2194069 100 nM	96.7	94.4	120	102	100
co-treatment: pictilisib 100 nM	104	92.3	106	108	101

cell viability [%]
Conditions	1 nM	10 nM	100 nM	1000 nM	10000 nM
BV-173	104	89.4	104	95.9	104
HEL	92.8	96.5	105	97.1	105
HL-60 [7]	103	99.7	89.3	93.8	91.6
K-562 [8]	109	95.3	106	93.2	92.1
KCL-22	102	91.6	111	91.7	102
KG-1	98.4	97.2	103	92	93.8
KU-812 [9]	86.1	90.6	100	90.5	90
LAMA-84	93.5	97.6	96.3	99.9	97.7
ML-2	106	100	106	90.5	93
MOLM-13	97.4	90.8	88.2	104	103
MV4-11 [10]	116	99.4	92.9	87.8	96.4
Mono-Mac-6 [11]	103	102	111	102	89.7
NOMO-1 [12]	90.6	103	96.4	99.6	102
SHI-1	108	94.5	102	101	103
THP-1	102	93.4	99.8	99.9	96.3

Cl.NC(CCC(=O)Nc1ccc([N+](=O)[O-])cc1)C(=O)O (stereo not given) [GPNA]
Conditions	IC50 (cell viability) [µM]
K-562 [1]	> 10
KU-812 [2]	> 10
MV4-11 [3]	> 10
Mono-Mac-6 [4]	> 10
NOMO-1 [5]	> 10

cell viability [%], HL-60 [6]
Conditions	0.001 µM	0.01 µM	0.1 µM	1 µM	10 µM
co-treatment: AZD3965 100 nM	96.99	97.1	103.3	102	94.3
co-treatment: DMSO vehicle	98.13	100	98.7	102	98.5
co-treatment: GSK2194069 100 nM	99.6	104	99.4	85.4	96.8
co-treatment: pictilisib 100 nM	100.2	97.4	98.5	98.7	92.5

cell viability [%]
Conditions	1 nM	10 nM	100 nM	1000 nM	10000 nM
BV-173	114	106	94.1	101	119
HEL	95.2	104	106	91.5	104
HL-60 [7]	103	60.6	104	99.3	125
K-562 [8]	108	96.3	100	109	120
KCL-22	106	91	110	96.5	102
KG-1	112	115	95.9	102	108
KU-812 [9]	108	95.5	103	96.4	110
LAMA-84	109	109	98	111	100
ML-2	107	90.5	98.9	107	109
MOLM-13	101	99.6	109	98.2	134
MV4-11 [10]	117	93.5	100	99.5	124
Mono-Mac-6 [11]	92.2	96.4	105	98.3	104
NOMO-1 [12]	107	102	101	105	105
SHI-1	107	91.6	94.9	99.5	98.3
THP-1	106	101	101	102	104
